Measured values reported in US20150105252A1, “SUBSTITUTED PYRAZOLES AS HERBICIDES” (E I DU PONT DE NEMOURS AND COMPANY, priority 2013, published 2015).

How the values were obtained:
[1] = system: bermudagrass; assay: Test C postemergence; assay type: in vivo, Cynodon dactylon; details: for Bermudagrass plant response rating: scale 0 to 100
Description: (§1) Seeds of plant species selected from blackgrass (Alopecurus myosuroides), ryegrass, Italian (Italian ryegrass, Lolium multiflorum), wheat (winter wheat, Triticum aestivum), galium (catchweed bedstraw, Galium aparine), corn (Zea mays), crabgrass, large (large crabgrass, Digitaria sanguinalis), foxtail, giant (giant foxtail, Setaria faberii), johnsongrass (Sorghum halepense), lambsquarters (Chenopodium album), morningglory (Ipomoea coccinea), nutsedge, yellow (yellow nutsedge, Cyperus esculentus), pigweed (redroot pigweed, Amaranthus retroflexus), ragweed (common ragweed, Ambrosia elation), soybean (Glycine max), barnyardgrass (Echinochloa crus-galli), oilseed rape (Brassica napus), waterhemp (common waterhemp, Amaranthus rudis), oat, wild (wild oat, Avena fatua), kochia (Kochia scoparia), Surinam grass (Brachiaria decumbens), foxtail, green (green foxtail, Setaria viridis), goosegrass (Eleusine indica), bromegrass, downy (downy bromegrass, Bromus tectorum), nightshade (eastern black nightshade, Solanum ptycanthum), cocklebur (common cocklebur, Xanthium strumarium), cupgrass, woolly (woolly cupgrass, Eriochloa villosa), bermudagrass (Cynodon dactylon), sunflower, (common oilseed sunflower, Helianthus annuus), Russian thistle (Salsola kali), and velvetleaf (Abutilon theophrasti) were planted into a blend of loam soil and sand and treated preemergence with test chemicals formulated in a non-phytotoxic solvent mixture which included a surfactant.
(§2) At the same time, plants selected from these crop and weed species and also chickweed (common chickweed, Stellaria media), canarygrass (littleseed canarygrass, Phalaris minor), and deadnettle (henbit deadnettle, Lamium amplexicaule), were planted in pots containing Redi-Earth® planting medium (Scotts Company, 14111 Scottslawn Road, Marysville, Ohio 43041) comprising spaghnum peat moss, vermiculite, wetting agent and starter nutrients and treated with postemergence applications of test chemicals formulated in the same manner. Plants ranged in height from 2 to 18 cm (1- to 4-leaf stage) for postemergence treatments. Treated plants and controls were maintained in a greenhouse for 13 to 15 days, after which time all species were compared to controls and visually evaluated. Plant response ratings, summarized in Table C, are based on a scale of 0 to 100 where 0 is no effect and 100 is complete control. A dash (-) response means no test result.

[2] = system: cocklebur; assay: Test C postemergence; assay type: in vivo, Xanthium strumarium; details: for Cocklebur plant response rating: scale 0 to 100
Description: as §1, §2

[3] = system: sunflower; assay: Test C preemergence; assay type: in vivo, Helianthus annuus; details: for Plant response rating (scale of 0 to 100), Sunflower: Preemergence, 250 g ai/ha; for Sunflower plant response rating / Plant response rating, Sunflower: preemergence; for Plant response rating, Sunflower: 62 g ai/ha, scale 0 to 100, 0 = no effect, 100 = complete control
Description: as §1, §2

[4] = system: hairy beggarticks; assay: Test F preemergence; assay type: in vivo, Bidens pilosa
Description: (§3) Seeds of plant species selected from corn (Zea mays), soybean (Glycine max), velvetleaf (Abutilon theophrasti), lambsquarters (Chenopodium album), wild poinsettia (Euphorbia heterophylla), pigweed, palmer (palmer pigweed, Amaranthus palmeri), common waterhemp (Amaranthus rudis), surinam grass (Brachiaria decumbens), large crabgrass (Digitaria sanguinalis), crabgrass, Brazil (Brazilian crabgrass, Digitaria horizontalis), fall panicum (Panicum dichotomiflorum), giant foxtail (Setaria faberii), green foxtail (Setaria viridis), goosegrass (Eleusine indica), johnsongrass (Sorghum halepense), common ragweed (Ambrosia elation), barnyardgrass (Echinochloa crus-galli), southern sandbur (Cenchrus echinatus), arrowleaf sida (Sida rhombifolia), Italian ryegrass (Lolium multiflorum), dayflower, VA (Virginia (VA) dayflower, Commelina virginica), field bindweed (Convolvulus arvensis), cocklebur (common cocklebur, Xanthium strumarium), morningglory (Ipomoea coccinea), nightshade (eastern black nightshade, Solanum ptycanthum), kochia (Kochia scoparia), yellow nutsedge (Cyperus esculentus), and hairy beggarticks (Bidens pilosa), were planted into a silt loam soil and treated preemergence with test chemicals formulated in a non-phytotoxic solvent mixture which included a surfactant.
(§4) At the same time, plants from these crop and weed species and also horseweed (Canada horseweed, Conyza canadensis), smartweed (ladysthumb smartweed, Polygonum persicaria), waterhemp_RES1, (ALS & Triazine resistant common waterhemp, Amaranthus rudis), and waterhemp_RES2, (ALS & HPPD resistant common waterhemp, Amaranthus rudis) were treated with postemergence applications of test chemicals formulated in the same manner. Plants ranged in height from 2 to 18 cm for postemergence treatments (1- to 4-leaf stage). Treated plants and controls were maintained in a greenhouse for 14 to 21 days, after which time all species were compared to controls and visually evaluated. Plant response ratings, summarized in Table F, are based on a scale of 0 to 100 where 0 is no effect and 100 is complete control. A dash (-) response means no test result.

[5] = system: field bindweed; assay: Test F preemergence; assay type: in vivo, Convolvulus arvensis
Description: as §3, §4

[6] = system: goosegrass; assay: Test F preemergence; assay type: in vivo, Eleusine indica
Description: as §3, §4

[7] = system: soybean; assay: Test F preemergence; assay type: in vivo, Glycine max
Description: as §3, §4

[8] = system: morningglory; assay: Test F preemergence; assay type: in vivo, Ipomoea coccinea
Description: as §3, §4

[9] = system: crabgrass, Brazil; assay: Test F preemergence; assay type: in vivo, Digitaria horizontalis
Description: as §3, §4

[10] = postemergence, 250 g ai/ha, scale 0 to 100 (0 no effect, 100 complete control)
[11] = postemergence, 62 g ai/ha, scale 0 to 100, 0 no effect, 100 complete control
[12] = postemergence, 125 g ai/ha, scale 0 to 100, 0 no effect, 100 complete control
[13] = 31 g ai/ha, scale 0 to 100 (0 no effect, 100 complete control), 13 to 15 days
[14] = 125 g ai/ha, scale 0 to 100, 0 is no effect, 100 is complete control
[15] = Preemergence, 31 g ai/ha, scale 0 to 100
[16] = Preemergence, 62 g ai/ha, scale 0 to 100
[17] = Preemergence, 125 g ai/ha, scale 0 to 100
[18] = preemergence, 8 g ai/ha, scale 0 to 100, 100 is complete control
[19] = preemergence, 16 g ai/ha, scale 0 to 100, 100 is complete control
[20] = Preemergence, 250 g ai/ha, scale 0 to 100
[21] = Preemergence, 16 g ai/ha, scale 0 to 100

CCc1cc(C(=O)NCC(F)(F)F)nn1Cc1cccc(OC(F)(F)F)c1 [Compound 20]
Bermudagrass plant response rating ([1]; Postemergence, 31 g ai/ha): 5 | Plant response rating, Bermudagrass [1, 10]: 45 | Plant response rating, Bermudagrass [1, 11]: 5 | Plant response rating, Bermudagrass [1, 12]: 15 | Cocklebur plant response rating ([2]; Postemergence, 31 g ai/ha): 20 | Plant response rating, Cocklebur [2, 10]: 40 | Plant response rating, Cocklebur [2, 11]: 35 | Plant response rating, Cocklebur [2, 12]: 35

CCCNC(=O)c1cc(CC)n(Cc2cccc(OC(F)(F)F)c2)n1 [Compound 27]
Bermudagrass plant response rating ([1]; Postemergence, 31 g ai/ha): 0 | Plant response rating, Bermudagrass [1, 10]: 25 | Plant response rating, Bermudagrass [1, 11]: 5 | Plant response rating, Bermudagrass [1, 12]: 5 | Cocklebur plant response rating ([2]; Postemergence, 31 g ai/ha): 20 | Plant response rating, Cocklebur [2, 10]: 40 | Plant response rating, Cocklebur [2, 11]: 25 | Plant response rating, Cocklebur [2, 12]: 35

CCc1cc(C(=O)NOC(C)C)nn1Cc1cccc(OC(F)(F)F)c1 [Compound 70]
Bermudagrass plant response rating ([1]; Postemergence, 31 g ai/ha): 5 | Plant response rating, Bermudagrass [1, 10]: 10 | Plant response rating, Bermudagrass [1, 11]: 5 | Plant response rating, Bermudagrass [1, 12]: 10 | Cocklebur plant response rating ([2]; Postemergence, 31 g ai/ha): 10 | Plant response rating, Cocklebur [2, 10]: 45 | Plant response rating, Cocklebur [2, 11]: 15 | Plant response rating, Cocklebur [2, 12]: 20 | Plant response rating (scale of 0 to 100), Sunflower [3]: 5 | Sunflower plant response rating [3, 13]: 0 | Plant response rating, Sunflower ([3]; 13 to 15 days): 0 | Sunflower plant response rating [3, 14]: 5

CCONC(=O)c1cc(CC)n(Cc2cccc(OC(F)(F)F)c2)n1 [Compound 72]
Bermudagrass plant response rating ([1]; Postemergence, 31 g ai/ha): 0 | Bermudagrass plant response rating ([1]; postemergence, 62 g ai/ha): 0 | Plant response rating, Bermudagrass [1, 10]: 20 | Plant response rating, Bermudagrass [1, 12]: 15 | Cocklebur plant response rating ([2]; Postemergence, 31 g ai/ha): 0 | Cocklebur plant response rating ([2]; postemergence, 62 g ai/ha): 0 | Plant response rating, Cocklebur [2, 10]: 15 | Plant response rating, Cocklebur [2, 12]: 5 | Plant response rating (scale of 0 to 100), Sunflower [3]: 20 | Sunflower plant response rating [3, 13]: 0 | Plant response rating, Sunflower ([3]; 13 to 15 days): 0 | Sunflower plant response rating [3, 14]: 5

Cc1cc(C(=O)NCC(F)(F)F)nn1Cc1ccnc(C(F)(F)F)c1 [Compound 74]
Bermudagrass plant response rating ([1]; Postemergence, 31 g ai/ha): 5 | Bermudagrass plant response rating ([1]; postemergence, 62 g ai/ha): 5 | Plant response rating, Bermudagrass [1, 10]: 5 | Plant response rating, Bermudagrass [1, 12]: 5 | Cocklebur plant response rating ([2]; Postemergence, 31 g ai/ha): 20 | Cocklebur plant response rating ([2]; postemergence, 62 g ai/ha): 20 | Plant response rating, Cocklebur [2, 10]: 55 | Plant response rating, Cocklebur [2, 12]: 50 | Plant response rating (scale of 0 to 100), Sunflower [3]: 95 | Sunflower plant response rating [3, 13]: 10 | Plant response rating, Sunflower ([3]; 13 to 15 days): 40 | Sunflower plant response rating [3, 14]: 75

CCc1cc(-c2ccc(C(F)(F)F)cc2)nn1Cc1ccnc(C(F)(F)F)c1 [Compound 110]
Plant response rating, Hairy Beggarticks [4, 15]: 35 | Plant response rating, Hairy Beggarticks [4, 16]: 30 | Plant response rating, Hairy Beggarticks [4, 17]: 50 | Plant response rating, Hairy Beggarticks [4, 18]: 50 | Plant response rating, Hairy Beggarticks [4, 19]: 35 | Plant response rating, Field Bindweed [5, 15]: 30 | Plant response rating, Field Bindweed [5, 16]: 50 | Plant response rating, Field Bindweed [5, 17]: 90 | Plant response rating, Field Bindweed [5, 18]: 0 | Plant response rating, Field Bindweed [5, 19]: 10 | Plant response rating, Goosegrass [6, 15]: 35 | Plant response rating, Goosegrass [6, 16]: 60 | Plant response rating, Goosegrass [6, 17]: 95 | Plant response rating, Goosegrass [6, 18]: 0 | Plant response rating, Goosegrass [6, 19]: 15 | Plant response rating, Soybean [7, 15]: 15 | Plant response rating, Soybean [7, 16]: 0 | Plant response rating, Soybean [7, 18]: 0 | Plant response rating, Morningglory [8, 15]: 10 | Plant response rating, Morningglory [8, 16]: 10 | Plant response rating, Morningglory [8, 17]: 60 | Plant response rating, Morningglory [8, 18]: 0 | Plant response rating, Morningglory [8, 19]: 20 | Plant response rating, Crabgrass, Brazil [9, 15]: 100 | Plant response rating, Crabgrass, Brazil [9, 16]: 100 | Plant response rating, Crabgrass, Brazil [9, 17]: 100 | Plant response rating, Crabgrass, Brazil [9, 18]: 50 | Plant response rating, Crabgrass, Brazil [9, 19]: 70

CCCc1cc(C(=O)NC(C)C)nn1Cc1cc(C(F)(F)F)nn1C [Compound 201]
Plant response rating, Hairy Beggarticks [4, 16]: 20 | Plant response rating, Hairy Beggarticks [4, 17]: 35 | Plant response rating, Hairy Beggarticks [4, 20]: 40 | Plant response rating, Hairy Beggarticks [4, 19]: 0 | Plant response rating, Field Bindweed [5, 21]: 15 | Plant response rating, Field Bindweed [5, 16]: 20 | Plant response rating, Field Bindweed [5, 17]: 75 | Plant response rating, Field Bindweed [5, 20]: 100 | Plant response rating, Field Bindweed [5, 19]: 0 | Plant response rating, Goosegrass [6, 16]: 50 | Plant response rating, Goosegrass [6, 17]: 95 | Plant response rating, Goosegrass [6, 20]: 95 | Plant response rating, Goosegrass [6, 19]: 0 | Plant response rating, Soybean [7, 21]: 0 | Plant response rating, Soybean [7, 17]: 40 | Plant response rating, Soybean [7, 20]: 40 | Plant response rating, Soybean [7, 19]: 0 | Plant response rating, Morningglory [8, 21]: 0 | Plant response rating, Morningglory [8, 16]: 25 | Plant response rating, Morningglory [8, 17]: 65 | Plant response rating, Morningglory [8, 20]: 80 | Plant response rating, Morningglory [8, 19]: 0 | Plant response rating, Crabgrass, Brazil [9, 21]: 75 | Plant response rating, Crabgrass, Brazil [9, 16]: 95 | Plant response rating, Crabgrass, Brazil [9, 17]: 100 | Plant response rating, Crabgrass, Brazil [9, 20]: 100 | Plant response rating, Crabgrass, Brazil [9, 19]: 0

CCc1cc(C(=O)NCC(F)(F)F)nn1Cc1ccnc(Br)c1 [Compound 224]
Plant response rating, Hairy Beggarticks [4, 16]: 0 | Plant response rating, Hairy Beggarticks [4, 17]: 0 | Plant response rating, Hairy Beggarticks [4, 20]: 10 | Plant response rating, Field Bindweed [5, 16]: 65 | Plant response rating, Field Bindweed [5, 17]: 90 | Plant response rating, Field Bindweed [5, 20]: 90 | Plant response rating, Goosegrass [6, 16]: 35 | Plant response rating, Goosegrass [6, 17]: 60 | Plant response rating, Goosegrass [6, 20]: 95 | Plant response rating, Soybean [7, 16]: 25 | Plant response rating, Soybean [7, 17]: 20 | Plant response rating, Soybean [7, 20]: 50 | Plant response rating, Morningglory [8, 16]: 0 | Plant response rating, Morningglory [8, 17]: 0 | Plant response rating, Morningglory [8, 20]: 25 | Plant response rating, Crabgrass, Brazil [9, 16]: 98 | Plant response rating, Crabgrass, Brazil [9, 17]: 100 | Plant response rating, Crabgrass, Brazil [9, 20]: 100
